In brackets after ≈: the same amount, converted by molar mass. Activity calls are given as the source filed them. The rule behind the calls is not given here.
Key:
CAL-51 [1] = experiment: Antiproliferative activity against human CAL51 cells assessed as reduction in cell viability after 5 to 7 days by CellTiter 96 aqueous solution assay; format: functional, cell-based
T47D = experiment: Antiproliferative activity against human T47D cells assessed as reduction in cell viability after 5 to 7 days by CellTiter 96 aqueous solution assay; format: functional, cell-based
CAMA-1 = experiment: Antiproliferative activity against human CAMA1 cells assessed as reduction in cell viability after 5 to 7 days by CellTiter 96 aqueous solution assay; format: functional, cell-based
BT-549 = experiment: Antiproliferative activity against human BT549 cells assessed as reduction in cell viability after 5 to 7 days by CellTiter 96 aqueous solution assay; format: functional, cell-based
MCF7 = experiment: Antiproliferative activity against human MCF7 cells assessed as reduction in cell viability after 5 to 7 days by CellTiter 96 aqueous solution assay; format: functional, cell-based
BT-474 = experiment: Antiproliferative activity against human BT474 cells assessed as reduction in cell viability after 5 to 7 days by CellTiter 96 aqueous solution assay; format: functional, cell-based
MDA-MB-231 = experiment: Antiproliferative activity against human MDA-MB-231 cells assessed as reduction in cell viability after 5 to 7 days by CellTiter 96 aqueous solution assay; format: functional, cell-based
BT-20 = experiment: Antiproliferative activity against human BT20 cells assessed as reduction in cell viability after 5 to 7 days by CellTiter 96 aqueous solution assay; format: functional, cell-based
MDA-MB-436 = experiment: Antiproliferative activity against human MDA-MB-436 cells assessed as reduction in cell viability after 5 to 7 days by CellTiter 96 aqueous solution assay; format: functional, cell-based
AU565 = experiment: Antiproliferative activity against human AU565 cells assessed as reduction in cell viability after 5 to 7 days by CellTiter 96 aqueous solution assay; format: functional, cell-based
SK-BR-3 = experiment: Antiproliferative activity against human SK-BR-3 cells assessed as reduction in cell viability after 5 to 7 days by CellTiter 96 aqueous solution assay; format: functional, cell-based
MDA-MB-468 = experiment: Antiproliferative activity against human MDA-MB-468 cells assessed as reduction in cell viability after 5 to 7 days by CellTiter 96 aqueous solution assay; format: functional, cell-based
Hs-578T = experiment: Antiproliferative activity against human Hs578T cells assessed as reduction in cell viability after 5 to 7 days by CellTiter 96 aqueous solution assay; format: functional, cell-based
MDA-MB-453 = experiment: Antiproliferative activity against human MDA-MB-453 cells assessed as reduction in cell viability after 5 to 7 days by CellTiter 96 aqueous solution assay; format: functional, cell-based
HCC1937 = experiment: Antiproliferative activity against human HCC1937 cells assessed as reduction in cell viability after 5 to 7 days by CellTiter 96 aqueous solution assay; format: functional, cell-based
[2] = target: T1, Dual specificity protein kinase TTK (Homo sapiens) (UniProt P33981); experiment: Inhibition of Mps1/TTK in human CAL51 cells assessed as reduction in centrosome amplification during S-phase by measuring decrease in cells with more than four centrioles incubated for 24 hrs followed by BrdU incorporation during last 4 hrs of incubation; format: cell-based
T1 sequence (whole entry): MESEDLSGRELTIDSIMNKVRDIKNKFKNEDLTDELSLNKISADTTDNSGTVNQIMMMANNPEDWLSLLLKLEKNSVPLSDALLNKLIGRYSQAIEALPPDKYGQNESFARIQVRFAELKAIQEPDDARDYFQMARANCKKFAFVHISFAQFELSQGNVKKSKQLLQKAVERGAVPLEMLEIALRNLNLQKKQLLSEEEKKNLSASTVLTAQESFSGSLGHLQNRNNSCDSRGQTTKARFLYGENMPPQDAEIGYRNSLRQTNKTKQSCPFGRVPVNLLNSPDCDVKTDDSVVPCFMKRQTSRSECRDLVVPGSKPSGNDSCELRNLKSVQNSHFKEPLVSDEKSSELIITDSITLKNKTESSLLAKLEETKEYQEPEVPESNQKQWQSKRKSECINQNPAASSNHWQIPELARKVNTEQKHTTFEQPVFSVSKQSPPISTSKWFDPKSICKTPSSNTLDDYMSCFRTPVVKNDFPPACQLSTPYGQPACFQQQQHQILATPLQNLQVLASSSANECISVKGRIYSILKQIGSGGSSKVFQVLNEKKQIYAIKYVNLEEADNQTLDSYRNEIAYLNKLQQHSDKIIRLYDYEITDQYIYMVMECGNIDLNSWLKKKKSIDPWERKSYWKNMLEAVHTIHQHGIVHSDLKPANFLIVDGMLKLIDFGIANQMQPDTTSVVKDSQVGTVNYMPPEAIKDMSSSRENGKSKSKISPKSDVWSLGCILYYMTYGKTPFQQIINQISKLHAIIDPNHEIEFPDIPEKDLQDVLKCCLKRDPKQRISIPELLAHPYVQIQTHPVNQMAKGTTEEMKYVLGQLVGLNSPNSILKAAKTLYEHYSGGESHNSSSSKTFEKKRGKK

[3] = target: T1, Dual specificity protein kinase TTK (Homo sapiens); experiment: Inhibition of Mps1/TTK in human CAL51 cells assessed as reduction in centriole assembly during S-phase by measuring increase in BrdU positive cells with two centrioles incubated for 24 hrs followed by BrdU incorporation during last 4 hrs of incubation; format: cell-based
[4] = target: T1, Dual specificity protein kinase TTK (Homo sapiens); experiment: Inhibition of Mps1/TTK in human MDA-MB-468 cells assessed as cell cycle arrest at mitotic stage by measuring decrease in spindle assembly checkpoint arrest in response to nocodazole by DAPI/Hoechst staining based assay
[5] = target: T1, Dual specificity protein kinase TTK (Homo sapiens); experiment: Inhibition of Mps1/TTK in human CAL51 cells assessed as spindle assembly checkpoint arrest in response to nocodazole by measuring decrease in cyclin B level up to 10 uM by immunoblotting method; format: cell-based
[6] = target: T1, Dual specificity protein kinase TTK (Homo sapiens); conditions: 1 uM
[7] = Solubility of the compound in DMSO by absorption spectrometric method; format: physicochemical
[8] = Solubility of the compound in 10:5:10:75 DMSO/Tween80/PEG400/saline by absorption spectrometric method; format: physicochemical
[9] = target: Tyrosine-protein kinase SYK (Homo sapiens, UniProt P43405); experiment: Inhibition of human SYK using poly[Glu:Tyr] (4:1) as substrate in presence of [gamma-32P]ATP
CAL-51 [10] = experiment: Antitumor activity against human CAL51 cells xenografted in athymic nude mouse assessed as reduction in tumor growth at 10 mg/kg, ip administered once daily measured after 3 to 7 weeks; format: functional, organism-based
CAL-51 [11] = experiment: Antitumor activity against human CAL51 cells xenografted in athymic nude mouse assessed as reduction in tumor weight at 10 mg/kg, ip administered once daily measured after 7 weeks; format: functional, organism-based
[12] = AUC in ICR mouse at 50 mg/kg, ip by LC-MS/MS analysis; format: ADME, organism-based; conditions: in vivo
[13] = target: Non-receptor tyrosine-protein kinase TYK2 (Homo sapiens, UniProt P29597); experiment: Inhibition of human TYK2 using KKSRGDYMTMQIG as substrate in presence of [gamma-32P]ATP
[14] = target: T1, Dual specificity protein kinase TTK (Homo sapiens); conditions: 1 uM; remark: listed apart in the source
[15] = target: Phosphatidylinositol 4,5-bisphosphate 3-kinase catalytic subunit beta isoform (Homo sapiens, UniProt P42338); experiment: Inhibition of PI3Kbeta (unknown origin)
[16] = Systemic clearance in ICR mouse at 20 mg/kg, iv by LC-MS/MS analysis; format: ADME, organism-based; conditions: in vivo
Mus musculus [17] = experiment: Toxicity in athymic nude mouse assessed as body weight at 10 mg/kg, ip administered once daily for 7 weeks measured at post last dose (reference value: 20 to 26 g); format: organism-based; conditions: in vivo, 1176 h
Mus musculus [18] = experiment: Toxicity in athymic nude mouse assessed as body weight at 10 mg/kg, ip measured immediately (reference value: 20 to 26 g); format: organism-based; conditions: in vivo
CAL-51 [19] = experiment: Cytotoxicity against human CAL51 cells assessed as reduction in cell viability at 25 uM after 24 hrs by BrdU incorporation assay relative to control; format: functional
[20] = Elimination half-life in ICR mouse at 20 mg/kg, iv by LC-MS/MS analysis; format: ADME, organism-based; conditions: in vivo, read-out: beta t1/2 (converted)

Non-receptor tyrosine-protein kinase TYK2, sequence (P29597 whole entry): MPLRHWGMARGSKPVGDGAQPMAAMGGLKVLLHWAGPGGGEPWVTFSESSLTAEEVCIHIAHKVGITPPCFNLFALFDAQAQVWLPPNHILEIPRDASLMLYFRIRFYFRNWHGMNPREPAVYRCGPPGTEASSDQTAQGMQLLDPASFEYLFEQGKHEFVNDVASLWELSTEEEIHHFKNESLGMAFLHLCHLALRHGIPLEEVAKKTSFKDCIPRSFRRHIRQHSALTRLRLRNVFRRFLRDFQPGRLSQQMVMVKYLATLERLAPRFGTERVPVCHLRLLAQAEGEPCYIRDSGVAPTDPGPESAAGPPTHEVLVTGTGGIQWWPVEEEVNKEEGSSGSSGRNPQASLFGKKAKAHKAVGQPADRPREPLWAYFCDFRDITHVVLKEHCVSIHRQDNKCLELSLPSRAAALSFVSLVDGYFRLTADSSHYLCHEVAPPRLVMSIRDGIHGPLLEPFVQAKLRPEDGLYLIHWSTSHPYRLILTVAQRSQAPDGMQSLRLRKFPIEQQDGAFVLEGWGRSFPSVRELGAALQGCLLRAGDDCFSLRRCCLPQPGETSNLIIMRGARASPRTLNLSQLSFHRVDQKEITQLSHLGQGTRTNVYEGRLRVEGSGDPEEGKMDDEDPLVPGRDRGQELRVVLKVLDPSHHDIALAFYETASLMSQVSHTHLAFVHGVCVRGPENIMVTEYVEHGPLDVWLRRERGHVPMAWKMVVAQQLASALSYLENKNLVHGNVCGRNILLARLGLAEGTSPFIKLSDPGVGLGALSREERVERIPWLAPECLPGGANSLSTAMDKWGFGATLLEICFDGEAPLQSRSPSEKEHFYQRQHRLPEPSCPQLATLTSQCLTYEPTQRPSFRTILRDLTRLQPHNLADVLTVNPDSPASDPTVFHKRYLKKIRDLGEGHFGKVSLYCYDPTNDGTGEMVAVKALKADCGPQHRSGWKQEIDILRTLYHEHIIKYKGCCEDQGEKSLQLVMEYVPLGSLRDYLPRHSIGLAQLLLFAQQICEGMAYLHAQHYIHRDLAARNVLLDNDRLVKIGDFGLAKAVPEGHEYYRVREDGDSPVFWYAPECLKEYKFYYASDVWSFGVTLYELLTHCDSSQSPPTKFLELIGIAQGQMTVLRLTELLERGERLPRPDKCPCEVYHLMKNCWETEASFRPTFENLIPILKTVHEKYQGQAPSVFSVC
Phosphatidylinositol 4,5-bisphosphate 3-kinase catalytic subunit beta isoform, sequence (P42338 whole entry, canonical isoform): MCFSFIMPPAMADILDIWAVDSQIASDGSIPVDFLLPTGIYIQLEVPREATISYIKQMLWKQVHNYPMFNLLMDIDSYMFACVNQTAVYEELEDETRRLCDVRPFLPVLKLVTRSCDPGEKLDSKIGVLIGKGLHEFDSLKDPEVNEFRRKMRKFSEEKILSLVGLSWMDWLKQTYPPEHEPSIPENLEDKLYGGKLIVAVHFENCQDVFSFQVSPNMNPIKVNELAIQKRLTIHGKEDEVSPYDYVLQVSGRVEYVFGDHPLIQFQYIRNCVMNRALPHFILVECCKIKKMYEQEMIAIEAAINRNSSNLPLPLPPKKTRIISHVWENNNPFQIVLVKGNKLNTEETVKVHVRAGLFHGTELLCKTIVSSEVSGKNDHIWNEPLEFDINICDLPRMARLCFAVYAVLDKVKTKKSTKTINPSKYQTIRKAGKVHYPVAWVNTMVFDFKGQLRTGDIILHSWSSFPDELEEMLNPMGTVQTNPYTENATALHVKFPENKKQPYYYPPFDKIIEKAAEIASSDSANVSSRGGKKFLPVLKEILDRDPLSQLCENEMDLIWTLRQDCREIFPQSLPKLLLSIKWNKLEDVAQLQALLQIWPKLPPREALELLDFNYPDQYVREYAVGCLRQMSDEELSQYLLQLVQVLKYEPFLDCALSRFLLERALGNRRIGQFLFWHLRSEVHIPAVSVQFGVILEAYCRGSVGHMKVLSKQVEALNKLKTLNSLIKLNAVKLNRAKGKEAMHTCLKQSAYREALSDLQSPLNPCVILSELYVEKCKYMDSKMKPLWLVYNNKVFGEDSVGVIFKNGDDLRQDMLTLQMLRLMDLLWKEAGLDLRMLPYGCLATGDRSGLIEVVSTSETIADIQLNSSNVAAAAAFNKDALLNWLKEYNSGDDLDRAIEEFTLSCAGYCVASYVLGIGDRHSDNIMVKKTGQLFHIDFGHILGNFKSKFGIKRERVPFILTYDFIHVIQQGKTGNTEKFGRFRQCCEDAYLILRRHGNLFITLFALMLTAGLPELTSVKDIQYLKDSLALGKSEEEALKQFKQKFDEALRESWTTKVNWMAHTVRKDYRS

| Compound | IC50 (T47D) [µM] | IC50 (BT-549) [nM] | IC50 (MCF7) [nM] | IC50 (BT-474) [nM] | IC50 (MDA-MB-231) [µM] | IC50 (BT-20) [nM] | IC50 (MDA-MB-436) [nM] | IC50 (SK-BR-3) [nM] | IC50 (MDA-MB-468) [nM] | IC50 (MDA-MB-453) [µM] | IC50 (HCC1937) [nM] | inhibition [2] | inhibition [3] | inhibition [5] | IC50 (CAL-51 [1]) [nM] | IC50 (CAMA-1) [nM] | IC50 (AU565) [µM] | IC50 (Hs-578T) [µM] | other results |
| --- | --- | --- | --- | --- | --- | --- | --- | --- | --- | --- | --- | --- | --- | --- | --- | --- | --- | --- | --- |
| COc1cc(N2CCOCC2)ccc1Nc1nc(Nc2ccccc2S(=O)(=O)C(C)C)c2cc[nH]c2n1 | > 10 | 1300 | 300 | 290 | > 10 | 1710 | 1230 | 470 | 320 | > 10 | 1100 |  |  |  | 300 | 650 | > 10 | > 10 |  |
| COc1cc(N2CCC(O)CC2)ccc1Nc1nc(Nc2ccccc2S(=O)(=O)C(C)C)c2cc[nH]c2n1 | > 10 | 810 | 440 | > 10000 | > 10 | 350 | 900 | > 10000 | 190 | 0.82 | 730 | Dose-dependent effect | Dose-dependent effect | Active | 230 | 360 | > 10 | > 10 | inhibition [4]: Dose-dependent effect |
| COc1cc(N2CCOCC2)ccc1Nc1nc(NC2CCCCC2)c2cc[nH]c2n1 | > 10 |  | > 10000 |  | > 10 | 370 |  | 400 |  |  | 1020 | Dose-dependent effect | Dose-dependent effect | Active | 550 | 600 | 0.95 | > 10 | inhibition [6]: Active; solubility [7]: 53.4 mg/mL (≈ 126 mM); solubility [8]: 5000 µg/mL (≈ 11.8 mM); IC50 [9]: 153 µM; TGI (CAL-51 [10]): Active; Activity (CAL-51 [11]): Active; AUC [12]: 8460 ng·h/mL; IC50 [13]: 132 µM; inhibition [14]: Active; IC50 [15]: 40.6 µM; clearance [16]: 292 mL/min/kg; Activity (Mus musculus [17]): 26 g; Activity (Mus musculus [18]): 24 g; Activity (CAL-51 [19]): 70%; half-life [20]: 137 min |

More lines, main results first:

| IC50 (T47D) [µM] | IC50 (BT-549) [nM] | IC50 (MCF7) [nM] | IC50 (BT-474) [nM] | IC50 (MDA-MB-231) [µM] | IC50 (BT-20) [nM] | IC50 (MDA-MB-436) [nM] | IC50 (SK-BR-3) [nM] | IC50 (MDA-MB-468) [nM] | IC50 (MDA-MB-453) [µM] | IC50 (HCC1937) [nM] | inhibition [2] | inhibition [3] | inhibition [5] | Compound | IC50 (CAL-51 [1]) [nM] | IC50 (CAMA-1) [nM] | IC50 (AU565) [µM] | IC50 (Hs-578T) [µM] | other results |
| --- | --- | --- | --- | --- | --- | --- | --- | --- | --- | --- | --- | --- | --- | --- | --- | --- | --- | --- | --- |
| > 10 | 1730 | > 10000 | > 10000 | > 10 | > 10000 | > 10000 | > 10000 | 1850 | > 10 | > 10000 |  |  |  | COc1cc(N2CCC(O)CC2)ccc1Nc1cc(Nc2ccccc2S(=O)(=O)C(C)C)c2cc[nH]c2n1 | 2920 | > 10000 | > 10 | > 10 |  |
| 0.33 | 2190 | 350 | 470 | 0.4 | 60 | 5230 | 750 | 1570 | > 10 | 840 |  |  |  | COc1ccccc1Nc1nc(Nc2ccccc2S(=O)(=O)C(C)C)c2cc[nH]c2n1 | 1260 | 840 | > 10 | > 10 |  |
